Experimental data from PMC8881610 (Nature Communications, 2022).

Assays:
[1] = target: GCGR (Homo sapiens, UniProt P47871, D195A/Q142A/R199A); assay: Whole-cell binding assay, competition with 125I-GCG; set-up: V5 (C); 6×His (C); expressed in transfected cells; host or cells: CHO-K1; settings: GCGR Q142A/D195A/R199A, CHO-K1
Outline: (§1)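 CHO-K1 cells transiently transfected with WT or mutant receptor constructs, washed in F-12 with 0.1% BSA or casein/33 mM HEPES and incubated 2 h at 37 °C. Bound radioactivity counted after Triton lysis; data normalized to WT and fitted to a three-parameter logistic equation.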

[2] = target: GCGR (Homo sapiens, UniProt P47871, K205A); assay: as above; set-up: V5 (C); 6×His (C); expressed in transfected cells; host or cells: CHO-K1; settings: GCGR K205A, CHO-K1
Sequence of GCGR (Homo sapiens, UniProt P47871, K205A) (P47871 26-477 K205A): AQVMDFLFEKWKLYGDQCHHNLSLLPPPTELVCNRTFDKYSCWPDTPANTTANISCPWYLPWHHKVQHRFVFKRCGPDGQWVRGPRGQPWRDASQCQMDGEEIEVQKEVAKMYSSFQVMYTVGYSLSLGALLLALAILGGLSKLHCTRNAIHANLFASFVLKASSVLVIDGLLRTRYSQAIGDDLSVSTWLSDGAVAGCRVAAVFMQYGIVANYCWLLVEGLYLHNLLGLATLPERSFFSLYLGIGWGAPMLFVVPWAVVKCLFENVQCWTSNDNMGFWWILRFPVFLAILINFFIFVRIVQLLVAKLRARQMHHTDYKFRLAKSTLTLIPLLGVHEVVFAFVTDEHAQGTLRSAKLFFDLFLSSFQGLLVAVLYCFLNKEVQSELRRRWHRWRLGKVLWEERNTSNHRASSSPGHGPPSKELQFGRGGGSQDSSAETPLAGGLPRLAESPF
Outline: as §1

[3] = target: GCGR (Homo sapiens, UniProt P47871, Q293A); assay: as above; set-up: V5 (C); 6×His (C); expressed in transfected cells; host or cells: CHO-K1; settings: GCGR Q293A, CHO-K1
Sequence of GCGR (Homo sapiens, UniProt P47871, Q293A) (P47871 26-477 Q293A): as the sequence (P47871 26-477 K205A) above, with A180K, Q268A counted along it
Outline: as §1

[4] = target: GCGR (Homo sapiens, UniProt P47871, Y145A); assay: as above; set-up: V5 (C); 6×His (C); expressed in transfected cells; host or cells: CHO-K1; settings: GCGR Y145A, CHO-K1
Sequence of GCGR (Homo sapiens, UniProt P47871, Y145A) (P47871 26-477 Y145A): as the sequence (P47871 26-477 K205A) above, with Y120A, A180K counted along it
Outline: as §1

[5] = target: T1, GIPR (Homo sapiens, UniProt P48546, W90A); assay: cAMP accumulation assay (LANCE Ultra cAMP kit), GIPR WT, mutant or modified constructs; format: cell-based; set-up: acylated tirzepatide to the full-length or modified; Flag; expressed in transfected cells; host or cells: HEK293T; settings: HEK-293T, GIPR W90A; HEK293T
T1 sequence (P48546 22-466 W90A): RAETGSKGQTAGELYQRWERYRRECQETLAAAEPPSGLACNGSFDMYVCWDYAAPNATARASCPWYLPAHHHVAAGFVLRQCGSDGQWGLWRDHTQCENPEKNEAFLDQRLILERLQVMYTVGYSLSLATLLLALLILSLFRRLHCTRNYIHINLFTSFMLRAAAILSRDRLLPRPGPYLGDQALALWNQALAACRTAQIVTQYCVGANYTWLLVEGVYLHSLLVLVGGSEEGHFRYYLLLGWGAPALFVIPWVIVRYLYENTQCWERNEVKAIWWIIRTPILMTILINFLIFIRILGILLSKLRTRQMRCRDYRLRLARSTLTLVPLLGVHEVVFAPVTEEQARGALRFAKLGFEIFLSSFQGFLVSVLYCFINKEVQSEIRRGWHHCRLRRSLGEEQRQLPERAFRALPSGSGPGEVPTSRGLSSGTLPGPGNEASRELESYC
Outline: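 HEK293T cells transiently transfected with human GIPR WT or mutant constructs (pcDNA3.1), used after 24 h. The cells were stimulated with peptide agonists for 40 min at RT in HBSS with 5 mM HEPES, 0.1% BSA or casein, and 0.5 mM IBMX. cAMP was read by LANCE Ultra TR-FRET (Eu-cAMP tracer/ULight anti-cAMP, 1 h RT, 620/650 nm).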

[6] = read-out: binding pIC50 (converted)

Sequence of GCGR (Homo sapiens, UniProt P47871, D195A/Q142A/R199A) (P47871 26-477 Q142A/D195A/R199A): as the sequence (P47871 26-477 K205A) above, with Q117A, D170A, R174A, A180K counted along it

CCCCCCCCCCCCCCCC(=O)N[C@@H](CCC(=O)NCCCC[C@H](NC(=O)[C@H](CC(=O)O)NC(=O)[C@H](CO)NC(=O)[C@@H](NC(=O)[C@H](Cc1ccccc1)NC(=O)[C@@H](NC(=O)CNC(=O)[C@H](CCC(N)=O)NC(=O)C(C)(C)NC(=O)[C@@H](N)Cc1c[nH]cn1)[C@@H](C)O)[C@@H](C)O)C(=O)N[C@@H](CO)C(=O)N[C@@H](CCCCN)C(=O)N[C@@H](Cc1ccc(O)cc1)C(=O)N[C@@H](CC(C)C)C(=O)N[C@@H](CC(=O)O)C(=O)N[C@@H](CCC(=O)O)C(=O)N[C@@H](CCCNC(=N)N)C(=O)N[C@@H](C)C(=O)N[C@@H](C)C(=O)N[C@@H](CCC(N)=O)C(=O)N[C@@H](CC(=O)O)C(=O)N[C@@H](Cc1ccccc1)C(=O)N[C@H](C(=O)N[C@@H](CCC(N)=O)C(=O)N[C@@H](Cc1c[nH]c2ccccc12)C(=O)N[C@@H](CC(C)C)C(=O)N[C@@H](CC(C)C)C(=O)N[C@@H](CC(=O)O)C(=O)NCC(=O)NCC(=O)N1CCC[C@H]1C(=O)N[C@@H](CO)C(=O)N[C@@H](CO)C(=O)NCC(=O)N[C@@H](C)C(=O)N1CCC[C@H]1C(=O)N1CCC[C@H]1C(=O)N1CCC[C@H]1C(=O)N[C@@H](CO)C(N)=O)C(C)C)C(=O)O [Peptide 20]
binding Span [1]: 24.37 ± 1.80 % WT | IC50 [1, 6]: 30.2 nM | binding Span [2]: 130.88 ± 9.06 % WT | IC50 [2, 6]: 182 nM | binding Span [3]: 135.17 ± 6.41 % WT | IC50 [3, 6]: 132 nM | binding Span [4]: 4.34 ± 3.92 % WT | IC50 [4, 6]: 0.457 nM | Emax [5]: 98 ± 4.59%
